Values belong to the compound of their own block, whether it stands above or below them.
Assays:
Rat Hepatic V1 Receptors = target: T1, Rat Hepatic V1 Receptors (Rattus norvegicus, UniProt P30560); experiment: Binding Assay to Rat Hepatic V1 Receptors; conditions: rat liver membranes; read-out: V1 IC50
T1 construct: Rat liver plasma membranes expressing the vasopressin V1 receptor subtypes; from tissue; host or cells: rat liver plasma membranes
Procedure: Binding Assay to Rat Hepatic V1 Receptors
Rat liver plasma membranes expressing the vasopressin V1 receptor subtypes are isolated by sucrose density gradient according to the method described by Lesko et al., (1973). These membranes are quickly suspended in 50.0 mM Tris.HCl buffer, pH 7.4, containing 0.2% bovine serum albumin (BSA) and 0.1 mM phenylmethylsulfonylfluoride (PMSF) and kept frozen at -70° C. until used in subsequent binding experiments. For binding experiments, the following is added to the wells of a ninety-six well format microtiter plate: 100 μl of 100.0 mM Tris.HCl buffer containing 10.0 mM MgCl2, 0.2% heat inactivated BSA and a mixture of protease inhibitors: leupeptin, 1.0 mg %; aprotinin, 1.0 mg %; 1,10-phenanthroiine,2.0 mg %; trypsin inhibitor, 10.0 mg % and 0.1 mM PMSF, 20.0 μl of [phenylalanyl-3,4,5, -^3 H] vasopressin (S.A. 45.1 Ci/mmole) at 0.8 nM, and the reaction initiated by the addition of 80 μl of tissue membranes containing 20 μg of tissue protein. The plates are kept undisturbed on the bench top at room temperature for 120 min. to reach equilibrium. Non-specific samples are assayed in the presence of 0.1 μM of the unlabeled antagonist phenylalanylvasopressin, added in 20.0 μl volume.
(§1) For test compounds, these are solubilized in 50% dimethylsulfoxide (DMSO) and added in 20.0 μl volume to a final incubation volume of 200 μl . Upon completion of binding, the content of each well is filtered off, using a Brandel® cell Harvester (Gaithersburg, Md.). The radioactivity trapped on the filter disk by the ligand-receptor complex is assessed by liquid scintillation counting in a Packard LS Counter, with an efficiency of 65% for tritium. The data are analyzed for IC50 values by the LUNDON-2 program for competition (LUNDON SOFTWARE, Ohio).

Vasopressin V1 = Vasopressin V1 Antagonist Activity in Conscious Rats (vasopressin vasopressor response); assay type: in vivo, rat; set-up: Average Change: unit not given here; conditions: SHR
Method in brief: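 Conscious rats are restrained supine, and under local 2% procaine a PE 10/20 cannula is passed through the ventral caudal tail artery into the lower abdominal aorta. The caudal vein is cannulated for intravenous dosing. Blood pressure is recorded with a Statham P23Db transducer, and vasopressin injections are repeated after compound dosing. Percent antagonism is calculated against the pre-drug vasopressor response taken as 100%.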

[1] = target: T2, Rat Kidney Medullary V2 Receptors (Rattus norvegicus, UniProt Q00788); experiment: Binding Assay to Rat Kidney Medullary V2 Receptors; conditions: rat kidney medulla membranes; read-out: V2 IC50
T2 construct: Medullary tissues from rat kidneys are dissected out; from tissue; host or cells: rat kidney medulla membranes
Procedure: Binding Assay to Rat Kidney Medullary V2 Receptors
Medullary tissues from rat kidneys are dissected out, cut into small pieces and soaked in a […] sodium chloride solution containing 1.0 mM EDTA with many changes of the liquid phase, until the solution is clear of blood. The tissue is homogenized in a 0.25M sucrose solution containing 1.0 mM EDTA and 0.1 mM PMSF using a Potter-Elvehjem homogenizer with a teflon pestle. The homogenate is filtered through several layers (4 layers) of cheese cloth. The filtrate is rehomogenized using a dounce homogenizer, with a tight fitting pestle. The final homogenate is centrifuged at 1500× g for 15 min. The nuclear pellet is discarded and the supernatant fluid recentrifuged at 40,000× g for 30 min. The resulting pellet formed contains a dark inner part with the exterior., slightly pink. The pink outer part is suspended in a small amount of 50.0 mM Tris. HCl buffer, pH 7.4. The protein content is determined by the Lowry's method (Lowry et al., J. Biol. Chem., 1953). The membrane suspension is stored at -70° C. in 50.0 mM Tris HCl, containing 0.2% inactivated BSA and 0.1 mM PMSF in aliquots of 1.0 ml containing 10.0 mg protein per ml of suspension until use in subsequent binding experiments.
as §1, with “The plates are left undisturbed on the bench top for 120 min to reach equilibrium. Non-specific binding is assessed in the presence of 1.0 μM of unlabeled ligand, added in 20 μl volume. For” for “For”, “μl.” for “μl .”

[2] = 10 mg/kg i.v., VAS 0.01 i.u./kg, 30 min
[3] = 10 mg/kg i.v., VAS 0.02 i.u./kg, 30 min
[4] = 20 mg/kg i.v., VAS 0.01 i.u./kg, 60 min
[5] = 20 mg/kg i.v., VAS 0.01 i.u./kg, 90 min
[6] = 20 mg/kg i.v., VAS 0.01 i.u./kg, 120 min
[7] = 20 mg/kg i.v., VAS 0.01 i.u./kg, 180 min
[8] = 20 mg/kg i.v., VAS 0.01 i.u./kg, 240 min
[9] = 20 mg/kg i.v., VAS 0.01 i.u./kg, 300 min
[10] = 20 mg/kg i.v., VAS 0.02 i.u./kg, 60 min
[11] = 20 mg/kg i.v., VAS 0.02 i.u./kg, 90 min
[12] = 20 mg/kg i.v., VAS 0.02 i.u./kg, 120 min
[13] = 20 mg/kg i.v., VAS 0.02 i.u./kg, 180 min
[14] = 20 mg/kg i.v., VAS 0.02 i.u./kg, 240 min
[15] = 20 mg/kg i.v., VAS 0.02 i.u./kg, 300 min
[16] = 10 mg/kg i.v., VAS 0.01 i.u./kg, 60 min
[17] = 10 mg/kg i.v., VAS 0.01 i.u./kg, 90 min
[18] = 10 mg/kg i.v., VAS 0.01 i.u./kg, 120 min
[19] = 10 mg/kg i.v., VAS 0.01 i.u./kg, 180 min
[20] = 10 mg/kg i.v., VAS 0.01 i.u./kg, 240 min
[21] = 10 mg/kg i.v., VAS 0.01 i.u./kg, 300 min
[22] = 10 mg/kg i.v., VAS 0.02 i.u./kg, 60 min
[23] = 10 mg/kg i.v., VAS 0.02 i.u./kg, 90 min
[24] = 10 mg/kg i.v., VAS 0.02 i.u./kg, 120 min
[25] = 10 mg/kg i.v., VAS 0.02 i.u./kg, 180 min
[26] = 10 mg/kg i.v., VAS 0.02 i.u./kg, 240 min
[27] = 10 mg/kg i.v., VAS 0.02 i.u./kg, 300 min

T1 sequence (P30560 whole entry): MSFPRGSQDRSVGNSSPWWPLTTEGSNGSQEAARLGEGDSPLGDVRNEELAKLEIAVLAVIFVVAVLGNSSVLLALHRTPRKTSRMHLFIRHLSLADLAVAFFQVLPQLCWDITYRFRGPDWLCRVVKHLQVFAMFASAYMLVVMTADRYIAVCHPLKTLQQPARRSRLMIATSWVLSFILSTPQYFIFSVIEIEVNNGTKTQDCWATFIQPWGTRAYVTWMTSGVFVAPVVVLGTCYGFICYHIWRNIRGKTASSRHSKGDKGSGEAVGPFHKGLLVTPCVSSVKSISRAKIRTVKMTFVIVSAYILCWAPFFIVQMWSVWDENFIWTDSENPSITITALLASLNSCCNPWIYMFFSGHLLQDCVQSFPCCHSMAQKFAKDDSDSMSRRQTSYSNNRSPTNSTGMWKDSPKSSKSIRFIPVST
T2 sequence (Q00788 whole entry): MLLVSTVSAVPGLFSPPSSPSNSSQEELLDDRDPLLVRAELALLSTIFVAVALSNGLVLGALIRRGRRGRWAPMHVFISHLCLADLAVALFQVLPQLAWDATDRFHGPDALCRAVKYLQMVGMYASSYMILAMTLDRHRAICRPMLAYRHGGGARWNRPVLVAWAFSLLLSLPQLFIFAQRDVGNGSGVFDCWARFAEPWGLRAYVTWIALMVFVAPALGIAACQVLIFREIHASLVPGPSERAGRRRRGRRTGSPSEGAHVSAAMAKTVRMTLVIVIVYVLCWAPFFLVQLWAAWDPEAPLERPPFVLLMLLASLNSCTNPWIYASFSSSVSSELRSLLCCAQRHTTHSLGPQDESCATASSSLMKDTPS

IC50 (Rat Hepatic V1 Receptors): 2770 nM
IC50 [1]: 377 nM
Structure (SMILES): O=C(Nc1ccc(C(=O)N2Cc3cccn3Cc3ccccc32)cc1)c1ccc2[nH]ccc2c1 [Example 117, N-[4-(5H-pyrrolo[2,1-c][1,4]benzodiazepin-10(11H)-ylcarbonyl)phenyl]-1H-indole-5-carboxamide]
% Inhibition (Vasopressin V1; [2]): 1%
Average Change (Vasopressin V1; [2]): 36
% Inhibition (Vasopressin V1; [3]): -12%
Average Change (Vasopressin V1; [3]): 63
% Inhibition (Vasopressin V1; [4]): 1%
Average Change (Vasopressin V1; [4]): 36
% Inhibition (Vasopressin V1; [5]): 38%
Average Change (Vasopressin V1; [5]): 22.5
% Inhibition (Vasopressin V1; [6]): 37%
Average Change (Vasopressin V1; [6]): 23
% Inhibition (Vasopressin V1; [7]): 27%
Average Change (Vasopressin V1; [7]): 26.5
% Inhibition (Vasopressin V1; [8]): 32%
Average Change (Vasopressin V1; [8]): 25
% Inhibition (Vasopressin V1; [9]): 29%
Average Change (Vasopressin V1; [9]): 26
% Inhibition (Vasopressin V1; [10]): 29%
Average Change (Vasopressin V1; [10]): 40
% Inhibition (Vasopressin V1; [11]): 19%
Average Change (Vasopressin V1; [11]): 46
% Inhibition (Vasopressin V1; [12]): 33%
Average Change (Vasopressin V1; [12]): 38
% Inhibition (Vasopressin V1; [13]): 19%
Average Change (Vasopressin V1; [13]): 46
% Inhibition (Vasopressin V1; [14]): 28%
Average Change (Vasopressin V1; [14]): 40.5
% Inhibition (Vasopressin V1; [15]): 25%
Average Change (Vasopressin V1; [15]): 42.5

IC50 (Rat Hepatic V1 Receptors): 26 nM
IC50 [1]: 22 nM
Structure (SMILES): O=C(Nc1ccc(C(=O)N2Cc3cccn3Cc3ccccc32)cc1)c1ccccc1C(F)(F)F [Example 91, N-[4-(5H-Pyrrolo[2,1-c][1,4]benzodiazepin-10(11H)-ylcarbonyl)phenyl]-2-(trifluoromethyl)benzamide]
% Inhibition (Vasopressin V1; [2]): 90%
Average Change (Vasopressin V1; [2]): 5
% Inhibition (Vasopressin V1; [16]): 87%
Average Change (Vasopressin V1; [16]): 6.5
% Inhibition (Vasopressin V1; [17]): 81%
Average Change (Vasopressin V1; [17]): 9
% Inhibition (Vasopressin V1; [18]): 73%
Average Change (Vasopressin V1; [18]): 13
% Inhibition (Vasopressin V1; [19]): 55%
Average Change (Vasopressin V1; [19]): 22
% Inhibition (Vasopressin V1; [20]): 59%
Average Change (Vasopressin V1; [20]): 20
% Inhibition (Vasopressin V1; [21]): 66%
Average Change (Vasopressin V1; [21]): 16.5
% Inhibition (Vasopressin V1; [3]): 88%
Average Change (Vasopressin V1; [3]): 7.5
% Inhibition (Vasopressin V1; [22]): 89%
Average Change (Vasopressin V1; [22]): 7
% Inhibition (Vasopressin V1; [23]): 80%
Average Change (Vasopressin V1; [23]): 12.5
% Inhibition (Vasopressin V1; [24]): 72%
Average Change (Vasopressin V1; [24]): 17.5
% Inhibition (Vasopressin V1; [25]): 54%
Average Change (Vasopressin V1; [25]): 29
% Inhibition (Vasopressin V1; [26]): 53%
Average Change (Vasopressin V1; [26]): 29.5
% Inhibition (Vasopressin V1; [27]): 48%
Average Change (Vasopressin V1; [27]): 32.5

IC50 (Rat Hepatic V1 Receptors): 188 nM
IC50 [1]: 59 nM
Structure (SMILES): Cc1ccccc1C(=O)N(C)c1ccc(C(=O)N2Cc3cccn3Cc3ccccc32)cc1 [Example 384, N-[4-(5H-Pyrrolo[2,1-c][1,4]benzodiazepin-10(11H)-ylcarbonyl)phenyl]-N-methyl-2-methylbenzamide]
% Inhibition (Vasopressin V1; [2]): 62%
Average Change (Vasopressin V1; [2]): 9
% Inhibition (Vasopressin V1; [16]): 62%
Average Change (Vasopressin V1; [16]): 9
% Inhibition (Vasopressin V1; [17]): 49%
Average Change (Vasopressin V1; [17]): 12
% Inhibition (Vasopressin V1; [18]): 55%
Average Change (Vasopressin V1; [18]): 10.5
% Inhibition (Vasopressin V1; [19]): 53%
Average Change (Vasopressin V1; [19]): 11
% Inhibition (Vasopressin V1; [20]): 53%
Average Change (Vasopressin V1; [20]): 11
% Inhibition (Vasopressin V1; [21]): 49%
Average Change (Vasopressin V1; [21]): 12
% Inhibition (Vasopressin V1; [3]): 61%
Average Change (Vasopressin V1; [3]): 14.5
% Inhibition (Vasopressin V1; [22]): 72%
Average Change (Vasopressin V1; [22]): 10.5
% Inhibition (Vasopressin V1; [23]): 58%
Average Change (Vasopressin V1; [23]): 15.5
% Inhibition (Vasopressin V1; [24]): 69%
Average Change (Vasopressin V1; [24]): 11.5
% Inhibition (Vasopressin V1; [25]): 64%
Average Change (Vasopressin V1; [25]): 13.5
% Inhibition (Vasopressin V1; [26]): 59%
Average Change (Vasopressin V1; [26]): 15
% Inhibition (Vasopressin V1; [27]): 54%
Average Change (Vasopressin V1; [27]): 17
